The values that follow are results of earlier work, collected in paper PMC8374649, “IBI362 (LY3305677), a weekly-dose GLP-1 and glucagon receptor dual agonist, in Chinese adults with overweight or obesity: A randomised, placebo-controlled, multiple ascending dose phase 1b study” (EClinicalMedicine, 2021).

Data set [1] concerns Japanese adults with type 2 diabetes. The conditions noted are these: once-daily, 48-day phase 2a study; cited from earlier work. The source says:
Despite the weight loss effect of glucagon, its inherited stimulation of gluconeogenesis and glycogenolysis requires optimal balancing of GLP-1 and glucagon receptor activities for dual agonists. […] IBI362 has b ...

Data set [2] deals with patients with type 2 diabetes. The conditions noted are these: 12-week administration; cited from earlier work. The source says: A remarkable and unexpected finding of this study was the statistically significant reduction in serum uric acid levels in participants receiving IBI362. BMI is strongly positively correlated with serum uric acid levels, and weight loss is a commonly recommended treatment for gout, a disease resulting from chronic elevation of serum uric acid, [29], [30]. Although GLP-1 receptor agonists promote weight loss, direct evidence regarding the relationship between GLP-1 receptor agonists and blood uric acid level is limited.

As for Cotadutide, the “Weight loss and glycaemic control” value in data set [1] was “optimal weight loss and glycaemic control”. For the substance “liraglutide (HAEGTFTSDVSSYLEGQAAKEFIAWLVRGRG; chains of the INN, looked up) [GLP-1 receptor agonist]”, the “Plasma uric acid levels compared with placebo” value in data set [2] is on record as “did not reduce plasma uric acid levels”.
